From patent US20240384268A1, “Oligonucleotides” (Hudson Institute of Medical Research, priority 2021, published 2024)
In the oligonucleotide strings, read from the 5' end, every base follows the letter of its sugar. An asterisk marks phosphorothioate; unmarked linkages are phosphodiester. Other units and linkages are bracketed, terminal groups are in braces. A string of capitals states the bases alone. d = 2'-deoxy (DNA); m = 2'-O-methyl

Target: T1, human TLR9 (Homo sapiens, UniProt Q9NR96)
T1 construct: HA; host or cells: 293XL-hTLR9-HA (HEK293)
T1 sequence (Q9NR96 26-1032): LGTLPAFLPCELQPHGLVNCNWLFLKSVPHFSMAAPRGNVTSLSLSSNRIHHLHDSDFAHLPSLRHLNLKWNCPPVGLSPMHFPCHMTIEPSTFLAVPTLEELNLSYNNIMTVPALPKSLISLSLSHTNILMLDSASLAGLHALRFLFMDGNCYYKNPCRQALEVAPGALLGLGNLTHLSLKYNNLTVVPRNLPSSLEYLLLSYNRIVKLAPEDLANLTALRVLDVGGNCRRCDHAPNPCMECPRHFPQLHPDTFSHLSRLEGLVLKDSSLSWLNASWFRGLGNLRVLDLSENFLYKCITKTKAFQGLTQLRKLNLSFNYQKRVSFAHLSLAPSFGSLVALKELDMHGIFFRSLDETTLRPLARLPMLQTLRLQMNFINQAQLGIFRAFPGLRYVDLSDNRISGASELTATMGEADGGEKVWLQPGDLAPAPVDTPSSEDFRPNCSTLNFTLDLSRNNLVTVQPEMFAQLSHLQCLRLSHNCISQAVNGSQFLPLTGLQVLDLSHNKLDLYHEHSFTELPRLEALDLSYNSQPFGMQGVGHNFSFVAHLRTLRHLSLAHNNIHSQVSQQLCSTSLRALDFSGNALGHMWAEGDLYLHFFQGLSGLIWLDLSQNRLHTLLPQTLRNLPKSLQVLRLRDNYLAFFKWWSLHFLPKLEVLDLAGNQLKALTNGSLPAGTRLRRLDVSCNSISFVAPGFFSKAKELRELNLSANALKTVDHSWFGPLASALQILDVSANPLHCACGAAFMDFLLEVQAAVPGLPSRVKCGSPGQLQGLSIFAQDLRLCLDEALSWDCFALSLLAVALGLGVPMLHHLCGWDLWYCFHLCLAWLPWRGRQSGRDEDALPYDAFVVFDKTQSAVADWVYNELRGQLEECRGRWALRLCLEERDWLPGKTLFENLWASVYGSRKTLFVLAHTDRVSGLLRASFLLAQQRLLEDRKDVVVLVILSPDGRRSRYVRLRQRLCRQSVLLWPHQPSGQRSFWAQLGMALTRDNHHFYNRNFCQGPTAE
Test: HEK-TLR9 NF-κB-luciferase reporter, ODN2006 stimulation
Assay type: cell-based
Conditions: for TLR9-500 nM: averaged NF-κB-Luciferase relative to ODN2006: HEK-TLR9, 500 nM ASO 45 min, then 200 nM ODN2006 overnight, percentage of ODN2006 only; for TLR9 100 nM: MOE-modified ASO at 100 nM; for TLR9 100 nM / TLR9 500 nM: averaged NF-κB-Luciferase relative to ODN2006 condition; for TLR9 500 nM: MOE-modified ASO at 500 nM

mU*mU*mA*mG*mC*T*C*C*T*T*G*C*C*T*C*mG*mU*mU*mC*mC (mU*mU*mA*mG*mC*dT*dC*dC*dT*dT*dG*dC*dC*dT*dC*mG*mU*mU*mC*mC; antisense) [[LINC-PINT] 1222]
TLR9-500 nM: averaged NF-κB-Luciferase relative to ODN2006: 78.17%

AGTCGTAGTTGCTTCCTAAC (antisense; 2'-MOE modified, pattern not given here) [MB21D1-1181 MOE]
TLR9 100 nM: 0.527
TLR9 500 nM: 0.341

mU*mA*mA*mA*mA*T*A*A*G*G*G*G*A*A*T*mA*mG*mG*mG*mG (mU*mA*mA*mA*mA*dT*dA*dA*dG*dG*dG*dG*dA*dA*dT*mA*mG*mG*mG*mG) [[CDKN2B-AS1]80]
TLR9-500 nM: averaged NF-κB-Luciferase relative to ODN2006: 64.58%

mG*mC*mG*mU*mA*G*T*T*T*C*T*C*T*T*C*mC*mU*mC*mC*mC (GCGUAGTTTCTCTTCCUCCC; sugars from the 5' end m5 d10 m5, all phosphorothioate, methylation of C not given here) [[LINC-PINT]935 KL]
TLR9-500 nM: averaged NF-κB-Luciferase relative to ODN2006: 52.04%

mG*mG*mA*mU*mU*A*A*A*A*C*A*G*A*T*T*mA*mA*mU*mA*mC (GGAUUAAAACAGATTAAUAC; sugars from the 5' end m5 d10 m5, all phosphorothioate, methylation of C not given here) [[CDKN2B-AS1]1774]
TLR9-500 nM: averaged NF-κB-Luciferase relative to ODN2006: 27.79%

mU*mG*mA*mC*mA*A*A*A*C*A*A*T*A*A*T*mA*mA*mC*mA*mG (mU*mG*mA*mC*mA*dA*dA*dA*dC*dA*dA*dT*dA*dA*dT*mA*mA*mC*mA*mG) [[LINC-PINT]384]
TLR9-500 nM: averaged NF-κB-Luciferase relative to ODN2006: 53.61%

mA*mA*mG*mG*mU*G*G*C*C*A*C*A*G*G*C*mA*mA*mC*mG*mU (mA*mA*mG*mG*mU*dG*dG*dC*dC*dA*dC*dA*dG*dG*dC*mA*mA*mC*mG*mU; antisense) [[CDKN2B-AS1]2198]
TLR9-500 nM: averaged NF-κB-Luciferase relative to ODN2006: 84.28%

mA*mU*mG*mA*mC*A*T*T*T*C*G*T*G*G*C*mU*mC*mC*mU*mA (mA*mU*mG*mA*mC*dA*dT*dT*dT*dC*dG*dT*dG*dG*dC*mU*mC*mC*mU*mA) [[LINC-PINT]524.1]
TLR9-500 nM: averaged NF-κB-Luciferase relative to ODN2006: 107.12%

mC*mC*mC*mU*mA*A*T*G*C*T*T*T*C*C*T*mC*mU*mC*mC*mA (mC*mC*mC*mU*mA*dA*dT*dG*dC*dT*dT*dT*dC*dC*dT*mC*mU*mC*mC*mA; antisense) [[LINC-PINT1877 KL]
TLR9-500 nM: averaged NF-κB-Luciferase relative to ODN2006: 86.47%

mG*mU*mC*mC*mG*T*A*C*C*T*C*C*A*C*C*mC″mA*mC*mC*mG [[LINC-PINT]727.1]
TLR9-500 nM: averaged NF-κB-Luciferase relative to ODN2006: 58.15%

mA*mG*mG*mA*mU*T*A*A*A*A*C*A*G*A*T*mU*mA*mA*mU*mA (mA*mG*mG*mA*mU*dT*dA*dA*dA*dA*dC*dA*dG*dA*dT*mU*mA*mA*mU*mA) [[CDKN2B-AS1] 1775]
TLR9-500 nM: averaged NF-κB-Luciferase relative to ODN2006: 63.48%

TGGGCTGGAATCCGAGTTAT (antisense; 2'-MOE modified, pattern not given here) [EGFR-4705 MOE]
TLR9 100 nM: 0.443
TLR9 500 nM: 0.241

mU*mU*mC*mU*mC*T*C*T*G*G*T*C*C*C*A*mU*mC*mC*mC*mU (mU*mU*mC*mU*mC*dT*dC*dT*dG*dG*dT*dC*dC*dC*dA*mU*mC*mC*mC*mU; antisense) [[LINC-PINT]111]
TLR9-500 nM: averaged NF-κB-Luciferase relative to ODN2006: 98.01%

mG*mC*mA*mA*mG*G*C*A*G*A*G*A*A*A*C*mU*mC*mC*mA*mG (GCAAGGCAGAGAAACUCCAG; sugars from the 5' end m5 d10 m5, all phosphorothioate, methylation of C not given here) [[LINC-PINT]1315 KL]
TLR9-500 nM: averaged NF-κB-Luciferase relative to ODN2006: 53.46%

mA*mG*mA*mU*mU*A*T*C*T*T*C*T*T*T*T*mA*mA*mU*mU*mU (AGAUUATCTTCTTTTAAUUU; sugars from the 5' end m5 d10 m5, all phosphorothioate, methylation of C not given here) [[CDKN2B-AS1]2130]
TLR9-500 nM: averaged NF-κB-Luciferase relative to ODN2006: 78.72%

mU*mC*mC*mC*mA*T*C*C*C*T*T*C*T*G*C*mU*mG*mA*mC*mA (UCCCATCCCTTCTGCUGACA; sugars from the 5' end m5 d10 m5, all phosphorothioate, methylation of C not given here) [[LINC-PINT]101]
TLR9-500 nM: averaged NF-κB-Luciferase relative to ODN2006: 59.80%

mA*mU*mA*mU*mC*T*G*C*T*G*C*C*C*A*C*mC*mU*mU*mC*mU (AUAUCTGCTGCCCACCUUCU; antisense; sugars from the 5' end m5 d10 m5, all phosphorothioate, methylation of C not given here) [[CDKN2B-AS1]831]
TLR9-500 nM: averaged NF-κB-Luciferase relative to ODN2006: 73.46%

mA*mA*mA*mA*mG*A*T*T*A*T*C*T*T*C*T*mU*mU*mU*mA*mA (AAAAGATTATCTTCTUUUAA; sugars from the 5' end m5 d10 m5, all phosphorothioate, methylation of C not given here) [[CDKN2B-AS1]2133]
TLR9-500 nM: averaged NF-κB-Luciferase relative to ODN2006: 80.95%

mU*mG*mU*mG*mA*A*A*A*G*A*T*T*A*T*C*mU*mU*mC*mU*mU (UGUGAAAAGATTATCUUCUU; sugars from the 5' end m5 d10 m5, all phosphorothioate, methylation of C not given here) [[CDKN2B-AS1]2137]
TLR9-500 nM: averaged NF-κB-Luciferase relative to ODN2006: 62.16%

mU*mU*mU*mG*mA*A*A*T*T*C*A*G*A*A*G*mA*mU*mU*mU*mG (mU*mU*mU*mG*mA*dA*dA*dT*dT*dC*dA*dG*dA*dA*dG*mA*mU*mU*mU*mG) [[LINC PINT|2690]
TLR9-500 nM: averaged NF-κB-Luciferase relative to ODN2006: 54.33%

mG*mG*mU*mG*mG*C*C*A*C*A*G*G*C*A*A*mC*mG*mU*mC*mA (GGUGGCCACAGGCAACGUCA; antisense; sugars from the 5' end m5 d10 m5, all phosphorothioate, methylation of C not given here) [[CDKN2B-AS1]2196]
TLR9-500 nM: averaged NF-κB-Luciferase relative to ODN2006: 97.04%

mC*mC*mA*mU*mC*C*C*T*T*C*T*G*C*T*G*mC*mC*mA*mA*mG (mC*mC*mA*mU*mC*dC*dC*dT*dT*dC*dT*dG*dC*dT*dG*mC*mC*mA*mA*mG; antisense) [ILING-PINT199]
TLR9-500 nM: averaged NF-κB-Luciferase relative to ODN2006: 92.72%

mA*mA*mA*mA*mU*A*A*G*G*G*G*A*A*T*A*mG*mG*mG*mG*mA (mA*mA*mA*mA*mU*dA*dA*dG*dG*dG*dG*dA*dA*dT*dA*mG*mG*mG*mG*mA; antisense) [[CDKN2B-AS1]79]
TLR9-500 nM: averaged NF-κB-Luciferase relative to ODN2006: 67.44%

mC*mU*mC*mU*mC*T*G*G*T*C*C*C*A*T*C*mC*mC*mU*mU*mC (mC*mU*mC*mU*mC*dT*dG*dG*dT*dC*dC*dC*dA*dT*dC*mC*mC*mU*mU*mC; antisense) [[LINC-PINT]109]
TLR9-500 nM: averaged NF-κB-Luciferase relative to ODN2006: 89.85%

CGGCATCCACCACGTCGTCC (antisense; 2'-MOE modified, pattern not given here) [EGFR-3267 MOE]
TLR9 100 nM: 0.449
TLR9 500 nM: 0.373

mA*mG*mA*mA*mA*G*A*A*G*C*A*A*A*G*A*mU*mU*mC*mA*mA (AGAAAGAAGCAAAGAUUCAA; sugars from the 5' end m5 d10 m5, all phosphorothioate, methylation of C not given here) [[CDKN2B-AS1]1519]
TLR9-500 nM: averaged NF-κB-Luciferase relative to ODN2006: 68.12%

mC*mC*mA*mU*mG*T*C*C*C*A*G*G*C*C*T*mC*mC*mA*mG*mU (CCAUGTCCCAGGCCTCCAGU; sugars from the 5' end m5 d10 m5, all phosphorothioate, methylation of C not given here) [[CDKN2B-AS1]2227]
TLR9-500 nM: averaged NF-κB-Luciferase relative to ODN2006: 48.79%

CGGAGGTCTTGGCTTCGTGG (antisense; 2'-MOE modified, pattern not given here) [MB21D1-525 MOE]
TLR9 100 nM: 0.938
TLR9 500 nM: 0.556

TGGGTTACGGCTCAGTATGG (antisense; 2'-MOE modified, pattern not given here) [CAMSAP1-4295 MOE]
TLR9 100 nM: 0.478
TLR9 500 nM: 0.228

mA*mA*mG*mA*mU*T*A*T*C*T*T*C*T*T*T*mU*mA*mA*mU*mU (mA*mA*mG*mA*mU*dT*dA*dT*dC*dT*dT*dC*dT*dT*dT*mU*mA*mA*mU*mU) [[CDKN2B-AS1]2131]
TLR9-500 nM: averaged NF-κB-Luciferase relative to ODN2006: 59.77%
